The values that follow come from PubChem BioAssay AID1985 (Southern Research Specialized Biocontainment Screening …, 2009).

Each structure is given as a SMILES string.

The experiment deals with S. Typhi PhoP-promoter GFP reporter, fluorescence, 4 h. In words: PhoP regulon inhibitor project modified counter assay, GFP fluorescence readout, dose response (AID 1985).
In the case of `CN1CCN(C2=Cc3ccccc3Sc3cc(F)ccc32)CC1`, the IC50 was 114 µM.
Consider `CCn1cc(C(=O)O)c(=O)c2cc(F)c(N3CCNCC3)cc21`, for which the IC50 is less than 0.23 µM.
Next, `CCn1cc(C(=O)NCC(C)C)c(=O)c2cc(F)c(N3CCN(C)CC3)cc21`: 30.6 µM.
As to `CCCCOCCCNc1ncnc2c1[nH]c1ccccc12`, the concentration for half-maximal inhibition (IC50) was 72.8 µM.
As for `Cc1ccc(S(=O)(=O)NNc2ccccc2)cc1`, the IC50 is 134 µM.
As for `O=C(N/N=C/c1ccc(O)c(O)c1)C1c2ccccc2Oc2ccccc21`, the figure is 106 µM; as for `CCn1cc(C(=O)O)c(=O)c2cc(F)c(N3CCN(C(=S)NC(=O)c4ccccc4F)CC3)cc21`, 62.8 µM.
As for `CC(=O)NC(c1cccc([N+](=O)[O-])c1)c1ccc2cccnc2c1O` (centres undefined), the figure is 98.9 µM; as for `CCn1cc(C(=O)O)c(=O)c2cc(F)c(N3CCN(S(=O)(=O)c4ccc(NC(C)=O)cc4)CC3)cc21`, 86.6 µM.
With `O=C1C2=C(Nc3ccccc3SC2c2ccco2)c2ccccc21` (centres undefined), the IC50 is 120 µM.
Take `CCCCn1c(NS(=O)(=O)c2ccccc2)c(C(=O)OCC)c2nc3ccccc3nc21`: the IC50 was 110 µM.
On to `Cc1ccc(C[n+]2c(-c3ccc(C)cc3)cc(-c3ccc(C)cc3)cc2-c2ccc(C)cc2)cc1`, for which the concentration for half-maximal inhibition (IC50) is 15.6 µM.
Next, `COc1cc([N+](=O)[O-])cc(/C=N/NC(=O)CSc2ccccn2)c1O`: 77.7 µM; `CC[C@@H](C)[C@H](CNC)NC[C@@H](Cc1cccc2ccccc12)NCCc1cccc(C(F)(F)F)c1`: 21.8 µM; `Cc1nc2ccccn2c1C(=O)N/N=C/c1ccc([N+](=O)[O-])o1`: 33.5 µM.
As for `CN1CCN(CCCN2c3ccccc3Sc3ccc(C(F)(F)F)cc32)CC1`, the figure is 124 µM; as for `COc1c(N2CCN(C(=S)NC3CC4CCC3C4)C(C)C2)c(F)cc2c(=O)c(C(=O)O)cn(C3CC3)c12` (centres undefined), 1.11 µM; as for `Cc1occc1C(=O)N/N=C/c1cccs1`, 45.7 µM.
As for `CS(=O)(=O)c1ccc2nc(NC(=O)c3ccc(Cl)nc3)sc2c1`, the figure is 81.9 µM; as for `CO[C@H]1C=CO[C@@]2(C)Oc3c(C)c(O)c4c(O)c(c5c(c4c3C2=O)NC2(CCN(CC(C)C)CC2)N=5)=NC(=O)C(C)=CC=C[C@H](C)[C@H](O)[C@@H](C)[C@@H](O)[C@@H](C)[C@H](OC(C)=O)[C@@H]1C`, 4.08 µM.
For `Cc1ccc(-c2ccccc2NC(=O)CS(=O)CC(=O)Nc2ccc(C)c(Cl)c2)o1` (centres undefined), the IC50 is 46.5 µM.
Next, `O=C(Nc1ccncc1)Nc1ccc(Cl)cc1`: 40.5 µM; `CCOc1ccc(Nc2nc(NCC3CCCO3)c3ccccc3n2)cc1` (centres undefined): 14.2 µM.
Take `O=C(CC(=O)c1ccccc1O)c1cccc(F)c1`: the IC50 is 37.9 µM.
Next, `CO[C@@]1(NC(=O)Cc2cccs2)C(=O)N2C(C(=O)O)=C(COC(N)=O)CS[C@@H]21`: 40.5 µM; `CCCCCCCCCn1c2c(c(=N)c3c1CCC3)CCC2`: 36.7 µM.
Regarding `Cc1c(Cl)cccc1Nc1nc(NCCO)c2ccccc2n1`, the IC50 was 38.1 µM.
Turning to `N=C(N)c1ccc(/C=C/c2ccc(C(=N)N)cc2O)cc1`, the IC50 is 16.2 µM.
Regarding `O=c1ccc2cc3c([nH]c4ccc(Br)cc43)oc-2c1O`, the IC50 is 22.5 µM.
Consider `CNCCCCOc1ccc(C(C)(C)C)cc1Cl`, for which the IC50 is 61 µM.
Next, `O=C(CCN1CCN(C(=O)c2ccccc2)CC1)c1ccc(Br)cc1`: 144 µM.
As for `O=c1[nH][nH]c(-c2ccccc2O)c1C(C[N+](=O)[O-])c1ccc(Br)cc1` (centres undefined), the figure is 71.7 µM; as for `Fc1ccc(Nc2nnc(C(F)(F)F)s2)cc1Cl`, 38 µM.
As for `CC(NCC(O)COc1ccc2ccccc2c1)c1ccccc1` (centres undefined), the IC50 was 132 µM.
Next, `Cc1ccc(OCC(O)Cn2c(=N)n(CCN3CCCCC3)c3ccccc32)cc1` (centres undefined): 67.9 µM.
As for `Cc1ccc2c(c1)c1c(n2CC(O)CNC2CCCCC2)CCCC1` (centres undefined), the figure is 136 µM.
As for `CCOC(=O)c1c(N)sc(C(=O)Nc2ccc3c(c2)OCO3)c1C`, the figure is 137 µM; as for `O=C(CCN1CCOCC1)N/N=C/c1cc(Br)cc(Br)c1O`, 30.7 µM; as for `CN1CCC(OC(=O)c2ccc(Br)cc2)CC1`, 58.3 µM.
Consider `O=c1c2ccccc2[nH]c2ccccc12`, for which the IC50 was 27.2 µM.
As for `O=C(Nc1cccc(N=Cc2cc(Cl)cc(Br)c2O)c1)c1ccco1`, the figure is 94.3 µM; as for `OC(CNCCc1ccc(Cl)cc1)COc1cc(Cl)ccc1Cl` (centres undefined), 36.6 µM.
Consider `CN1CCN(C(c2ccc(Cl)cc2)c2cc(Cl)c3cccnc3c2O)CC1` (centres undefined), for which the 50% inhibitory concentration (IC50) is 31.8 µM.
As for `C#CCOCCOCCOCCNc1nc(N2CCN(C(=O)CCCCCCCCCCNC(=O)[C@@H](CCSC)n3cc(CCO)nn3)CC2)nc(N2CCN(C(=O)CCCCCCCCCCNC(=O)[C@H]([C@@H](C)CC)n3cc(CCCCCN)nn3)CC2)n1`, the IC50 is 110 µM.
Regarding `CC/C(=N\Nc1ccnc2cc(Cl)ccc12)c1ccc(O)cc1`, the IC50 was 148 µM.
As for `C#CCOCCOCCOCCNc1nc(N2CCN(C(=O)[C@H](Cc3ccc(O)cc3)n3cc([C@@H](N)CC(C)C)nn3)CC2)nc(N2CCN(C(=O)[C@H](Cc3cc4ccccc4[nH]3)n3cc([C@@H](N)CC(C)C)nn3)CC2)n1`, the half-maximal inhibitory concentration (IC50) is 85.1 µM.
Next, `CCCCCCCCCCCCCCCC[n+]1cccc(C(=O)N(CC)CC)c1`: 20.1 µM.
Regarding `CN(C)CCNc1oc(COc2ccc(-c3ccccc3)cc2)nc1C#N`, the IC50 is 78.8 µM.
Next, `CN(C)c1ccc(Nc2nc(N)c3ccccc3n2)cc1`: 62.4 µM; `CN(C)CC/C=C1\c2ccccc2Sc2ccc(Cl)cc21`: 98.5 µM.
As for `O=C(CSc1nc2ccccc2s1)N/N=C/c1cc([N+](=O)[O-])ccc1O`, the IC50 is 44 µM.
In the case of `NC(=O)SCC(=O)Nc1ccc(Cl)cc1`, the IC50 was 45.1 µM.
As to `CNC[C@H](CC1CCCCC1)NC[C@H](Cc1ccccc1)NCCC12CC3CC(CC(C3)C1)C2`, the IC50 is 14.8 µM.
As to `N#C/C(=C\c1ccc[nH]1)C(=O)NC1CC1`, the IC50 was 63.7 µM.
As for `CCCCOc1ccc(Br)cc1CSC(=N)N`, the figure is 56.5 µM.
Next, `O=C(Oc1c(Cl)cc(Cl)c2cccnc12)c1cccc([N+](=O)[O-])c1`: 5.09 µM; `Cc1ccc(C(OCC(O)CNCc2ccc(F)cc2)c2ccccc2)cc1` (centres undefined): 74.4 µM; `CCC(C)(C)c1ccc(OCCCC[n+]2ccccc2)c(C(C)(C)CC)c1`: 67.9 µM.
Turning to `Cc1ccc(Nc2cc(C)nn2-c2nc(C)cc(=O)[nH]2)cc1`, the IC50 was 10.2 µM.
Next, `NC(N)=Nc1nc(-c2ccccc2)c2cc(Cl)ccc2n1`: 97.8 µM; `NC(N)=N/N=C/c1ccc(OCc2ccc(Cl)cc2)cc1`: 36.3 µM; `CN1CCN(CC(=O)N2CCn3c4c(c5cc(C6CCCCC6)ccc53)CCCC42)CC1` (centres undefined): 76.5 µM.
Consider `O=S(=O)(Nc1ncccn1)c1ccc(NC(=S)Nc2ccc(Cl)cc2)cc1`, for which the IC50 is 97.1 µM.
Consider `CC[C@H]1OC(=O)[C@H](C)[C@@H](O[C@H]2C[C@@](C)(OC)[C@@H](O)[C@H](C)O2)[C@H](C)[C@@H](O[C@@H]2O[C@H](C)C[C@H](N(C)C)[C@H]2O)[C@](C)(O)C[C@@H](C)[C@@H]2N[C@@H](COCCOC)O[C@H]([C@H]2C)[C@]1(C)O`, for which the IC50 was 45.4 µM.
Next, `COc1cc(CNCCc2c[nH]c3ccccc23)ccc1OCc1ccc(F)cc1`: 82.7 µM; `OC(CNCCc1ccccc1)COc1ccc(OCC(O)CNCCc2ccccc2)cc1` (centres undefined): 21.2 µM; `O=C(c1ccc([N+](=O)[O-])o1)N1CCOCC1`: 24.4 µM.
Next, `OC(c1cc(C(F)(F)F)nc2c(C(F)(F)F)cccc12)C1CCCCN1` (centres undefined): 37.6 µM.
Next, `Cc1cc(OCC(O)CNC(C)c2ccccc2)ccc1C(C)C` (centres undefined): 82.6 µM.
In the case of `CCn1cc(C(=O)O)c(=O)c2cc3c(cc21)OCO3`, the IC50 was 52.1 µM.
Next, `Cc1ccc2nc(NCc3ccccc3)[nH]c2c1`: 72.6 µM.
Next, `COc1cc([N+](=O)[O-])cc(/C=N/NC(=O)C(C)Nc2cccc(C)c2)c1O` (centres undefined): 71.6 µM; `Cn1ncnc2c(=O)n(C)c(=O)nc1-2`: 0.741 µM; `COc1ccc(C2NCCc3c2[nH]c2ccccc32)cc1COc1ccc(F)cc1` (centres undefined): 78.5 µM.
As for `CCN1CCc2c(C#N)c(NCc3ccccc3)nc(NCCO)c2C1`, the figure is 140 µM; as for `NCCCC[C@H]1CN=C(N)N1CCC12CC3CC(CC(C3)C1)C2`, 131 µM.
As to `c1ccc(Nc2nc(NCc3ccco3)c3ccccc3n2)cc1`, the IC50 is 24 µM.
On to `CCCCN(CCCC)C(=O)c1cn(CC)c2cc(N3CCN(C)CC3)c(F)cc2c1=O`, for which the IC50 is 7.43 µM.
As for `CCOc1cccc(/C=N/NC(=O)c2cc(C3CC3)[nH]n2)c1O`, the figure is 136 µM.
As for `Cc1cc(C)n(-c2nc(NCCN(C)C)c3c4c(sc3n2)CCCC4)n1`, the figure is 99.4 µM; as for `CN1CCN(C2=Cc3ccccc3Sc3cc(F)c(F)cc32)CC1`, 74.6 µM; as for `CSc1ccc2c(c1)C(N1CCN(C)CC1)Cc1ccccc1S2` (centres undefined), 55.6 µM.
Next, `Cc1ccc(C(=O)NCCN2C3=NC[C@@H](Cc4ccccc4)N3C[C@H]2Cc2ccc(O)cc2)cc1Br`: 121 µM.
With `CCCCCOc1ccc(CSC(=N)N)cc1[N+](=O)[O-]`, the IC50 is 20.9 µM.
Next, `O=C(O)c1cn(-c2ccc(F)cc2)c2cc(Cl)c(F)cc2c1=O`: 89.8 µM.
As for `c1cc2c(cc1C1CCCCC1)c1c3n2CCCNC3CCC1` (centres undefined), the figure is 39.9 µM.
Next, `C[C@H]1c2cccc(O)c2C(O)=C2C(=O)C3(O)C(O)=C(C(N)=O)C(=O)[C@@H](N(C)C)[C@@H]3[C@@H](O)[C@@H]21` (some centres undefined): 1.9 µM; `COc1cc(/C=N/NC(=O)c2cncc(Br)c2)cc([N+](=O)[O-])c1O`: less than 0.23 µM; `CCCCOc1ccc(C(=O)NNC(=S)NC(=O)CC)cc1`: 38.9 µM.
For the compound `N#Cc1nc(Cc2cccc3ccccc23)oc1NCCCN1CCOCC1`, the IC50 was 62 µM.
Next, `CCCCC(=O)NC(=S)NNC(=O)CC`: 50.2 µM; `Cc1ccc(C(=O)N/N=C\c2sccc2C)cn1`: 128 µM; `CCCCCCCCCCn1c2c(c(=N)c3c1CCC3)CCC2`: 144 µM.
As for `CN(C)C1C(=O)C(C(N)=O)=C(O)C2(O)C(=O)C3=C(O)c4c(O)cccc4C(C)(O)C3CC12` (centres undefined), the figure is 2.08 µM.

A word on the IC50: it is the concentration needed to halve the response being measured.
